According to PubChem BioAssay AID328 (DTP/NCI, 2004):
“And” between values parts separate entries of the source, which are not always exact repeats. Identical values can stand only once. Toxic doses and inconclusive results are not listed.

Test system: BDF1 mice, P388 leukemia ip, median survival T/C
Assay: NCI In Vivo Anticancer Drug Screen. Data for tumor model P388 Leukemia (intraperitoneal) in B6D2F1 (BDF1) mice
Settings: endpoint: median survival time, higher = longer survival
Summary of the method: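 Compound-treated tumour-bearing mice were compared with vehicle-treated controls. Survival was recorded, and the value is the treated-group measurement divided by the control-group measurement (T/C).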

[1] = dose: 3.12 mg/kg/injection, schedule: Q01DX009 (ip), vehicle: saline
[2] = dose: 6.25 mg/kg/injection, schedule: Q01DX009 (ip), vehicle: saline
[3] = dose: 25.0 mg/kg/injection, schedule: Q01DX009 (ip), vehicle: Klucel (hydroxypropylcellulose) (HPC)
[4] = dose: 50.0 mg/kg/injection, schedule: Q01DX009 (ip), vehicle: Klucel (hydroxypropylcellulose) (HPC)
[5] = dose: 100.0 mg/kg/injection, schedule: Q01DX009 (ip), vehicle: Klucel (hydroxypropylcellulose) (HPC)

## C[n+]1ccc(C#N)c2ccccc21
dose: 1.1 mg/kg/injection, schedule: Q04DX003 (ip), vehicle: saline
  T/C: 92 % of control and 100 % of control
dose: 1.71 mg/kg/injection, schedule: Q04DX003 (ip), vehicle: saline
  T/C: 95 % of control
dose: 2.5 mg/kg/injection, schedule: Q04DX003 (ip), vehicle: saline
  T/C: 88 % of control and 95 % of control
[1]
  T/C: 104 % of control
dose: 3.43 mg/kg/injection, schedule: Q04DX003 (ip), vehicle: saline
  T/C: 120 % of control
[2]
  T/C: 118 % of control
dose: 6.87 mg/kg/injection, schedule: Q04DX003 (ip), vehicle: saline
  T/C: 100 % of control
dose: 7.5 mg/kg/injection, schedule: Q04DX003 (ip), vehicle: saline with Tween-80
  T/C: 91 % of control
dose: 11.0 mg/kg/injection, schedule: Q01DX009 (ip), vehicle: saline
  T/C: 120 % of control
dose: 12.5 mg/kg/injection, schedule: Q01DX009 (ip), vehicle: saline
  T/C: 118 % of control
dose: 15.0 mg/kg/injection, schedule: Q04DX003 (ip), vehicle: saline with Tween-80
  T/C: 104 % of control

## CC(=O)Oc1cc(OC(C)=O)c2c(ccc3ccccc32)c1
dose: 100.0 mg/kg/injection, schedule: Q04DX003 (ip), vehicle: saline with Tween-80
  T/C: 93 % of control
dose: 200.0 mg/kg/injection, schedule: Q04DX003 (ip), vehicle: saline with Tween-80
  T/C: 97 % of control
dose: 400.0 mg/kg/injection, schedule: Q04DX003 (ip), vehicle: saline with Tween-80
  T/C: 93 % of control

## Cc1cccc(CCl)c1
dose: 100.0 mg/kg/injection, schedule: Q04DX003 (ip), vehicle: saline sonified
  T/C: 104 % of control
dose: 200.0 mg/kg/injection, schedule: Q04DX003 (ip), vehicle: saline sonified
  T/C: 109 % of control
dose: 400.0 mg/kg/injection, schedule: Q04DX003 (ip), vehicle: saline sonified
  T/C: 100 % of control

## COc1cccc(NC(=O)N2CCCCC2)c1
[3]
  T/C: 111 % of control
[4]
  T/C: 111 % of control
[5]
  T/C: 114 % of control
dose: 200.0 mg/kg/injection, schedule: Q01DX009 (ip), vehicle: Klucel (hydroxypropylcellulose) (HPC)
  T/C: 114 % of control

## O=[N+]([O-])c1ccc2scc3c4ccccc4nc-3c2c1
[2]
  T/C: 103 % of control

## OCc1ccc(Cl)c(Cl)c1
dose: 100.0 mg/kg/injection, schedule: Q04DX003 (ip), vehicle: other
  T/C: 104 % of control
dose: 200.0 mg/kg/injection, schedule: Q04DX003 (ip), vehicle: other
  T/C: 104 % of control
dose: 400.0 mg/kg/injection, schedule: Q04DX003 (ip), vehicle: other
  T/C: 100 % of control

## C=CCn1c(=S)[nH]c2ccccc2c1=O
dose: 100.0 mg/kg/injection, schedule: Q01DX009 (ip), vehicle: saline with Tween-80
  T/C: 100 % of control
dose: 200.0 mg/kg/injection, schedule: Q01DX009 (ip), vehicle: saline with Tween-80
  T/C: 95 % of control
dose: 400.0 mg/kg/injection, schedule: Q01DX009 (ip), vehicle: saline with Tween-80
  T/C: 100 % of control

## C=C1C[C@H]2[C@@H]3C=C(C)C4=CC(=O)CC[C@]4(C)[C@H]3CC[C@]2(C)[C@@]1(OC(C)=O)C(C)=O
dose: 62.5 mg/kg/injection, schedule: Q01DX010 (sc), vehicle: steriod suspending solution
  T/C: 105 % of control
dose: 125.0 mg/kg/injection, schedule: Q01DX010 (sc), vehicle: steriod suspending solution
  T/C: 110 % of control
dose: 250.0 mg/kg/injection, schedule: Q01DX010 (sc), vehicle: steriod suspending solution
  T/C: 100 % of control
dose: 500.0 mg/kg/injection, schedule: Q01DX010 (sc), vehicle: steriod suspending solution
  T/C: 110 % of control

## CC1=CC2=NC(=O)C(c3ccccc3)C(=O)N2C=C1 (configuration not stated)
[3]
  T/C: 100 % of control
dose: 25.0 mg/kg/injection, schedule: Q04DX003 (ip), vehicle: Klucel (hydroxypropylcellulose) (HPC)
  T/C: 100 % of control
[4]
  T/C: 105 % of control
dose: 50.0 mg/kg/injection, schedule: Q04DX003 (ip), vehicle: Klucel (hydroxypropylcellulose) (HPC)
  T/C: 100 % of control
[5]
  T/C: 115 % of control
dose: 100.0 mg/kg/injection, schedule: Q04DX003 (ip), vehicle: Klucel (hydroxypropylcellulose) (HPC)
  T/C: 100 % of control
dose: 400.0 mg/kg/injection, schedule: Q04DX003 (ip), vehicle: Klucel (hydroxypropylcellulose) (HPC)
  T/C: 88 % of control

## O=C1NC(c2ccccc2)C(=O)N1CCN(CCCl)CCCl (configuration not stated)
dose: 1.56 mg/kg/injection, schedule: Q01DX009 (ip), vehicle: saline
  T/C: 114 % of control
[1]
  T/C: 105 % of control
dose: 25.0 mg/kg/injection, schedule: Q01DX009 (ip), vehicle: saline
  T/C: 201 % of control
